# Measurements taken from patent US20080176936A1, “Classes of Compounds that Interact with Integrins” (priority 2005, published 2008).
# Legend:
# αVβ3 integrin = biological target: T1, αVβ3 integrin (Homo sapiens, UniProt P05106+P06756); assay: ELISA: inhibition of binding of αVβ3 integrin (source WM-115 cell line) to coated extracellular matrix protein; conditions: WM-115 cell line as integrin source
# T1 construct: the cell line WM-115 was used as a source of αVβ3 integrin; endogenous in cells; host or cells: WM-115 cell line
# Experimental: (§1) An ELISA assay based on the published method of Bethert et al., 2000, J Biol Chem 275, 33308-23, was employed.
# (§2) Briefly, appropriate microtitre plates were coated with either Fibrinogen or Vitronectin (10 μg/well). These extracellular matrix proteins contain the RGD amino acid sequence that is recognized by αllbβ3 integrin. Human platelet membrane preparations were used as a source of αllbβ3 integrin and the cell line WM-115 was used as a source of αVβ3 integrin. Inhibition of the binding of αllbβ3 integrin containing membrane preparations to the extracellular matrix protein was determined by pre-incubating the platelet membrane preparation with test or control compounds. The binding of the αllbβ3 integrin containing membrane was the quantitated by using a rabbit anti-integrinβ3 antibody, a horse radish peroxidase coupled second antibody and a standard colorimetric detection system.
# αllbβ3 integrin = biological target: T2, αllbβ3 integrin (Homo sapiens, UniProt P05106+P08514); assay: ELISA: inhibition of binding of αllbβ3 integrin membrane preparation to coated extracellular matrix protein; conditions: human platelet membrane preparation
# T2 construct: Human platelet membrane preparations were used as a source of αllbβ3 integrin; from tissue; host or cells: human platelets (membrane preparation)
# Experimental: as §1, §2
# T1 sequence (P06756 31-889 limits assumed): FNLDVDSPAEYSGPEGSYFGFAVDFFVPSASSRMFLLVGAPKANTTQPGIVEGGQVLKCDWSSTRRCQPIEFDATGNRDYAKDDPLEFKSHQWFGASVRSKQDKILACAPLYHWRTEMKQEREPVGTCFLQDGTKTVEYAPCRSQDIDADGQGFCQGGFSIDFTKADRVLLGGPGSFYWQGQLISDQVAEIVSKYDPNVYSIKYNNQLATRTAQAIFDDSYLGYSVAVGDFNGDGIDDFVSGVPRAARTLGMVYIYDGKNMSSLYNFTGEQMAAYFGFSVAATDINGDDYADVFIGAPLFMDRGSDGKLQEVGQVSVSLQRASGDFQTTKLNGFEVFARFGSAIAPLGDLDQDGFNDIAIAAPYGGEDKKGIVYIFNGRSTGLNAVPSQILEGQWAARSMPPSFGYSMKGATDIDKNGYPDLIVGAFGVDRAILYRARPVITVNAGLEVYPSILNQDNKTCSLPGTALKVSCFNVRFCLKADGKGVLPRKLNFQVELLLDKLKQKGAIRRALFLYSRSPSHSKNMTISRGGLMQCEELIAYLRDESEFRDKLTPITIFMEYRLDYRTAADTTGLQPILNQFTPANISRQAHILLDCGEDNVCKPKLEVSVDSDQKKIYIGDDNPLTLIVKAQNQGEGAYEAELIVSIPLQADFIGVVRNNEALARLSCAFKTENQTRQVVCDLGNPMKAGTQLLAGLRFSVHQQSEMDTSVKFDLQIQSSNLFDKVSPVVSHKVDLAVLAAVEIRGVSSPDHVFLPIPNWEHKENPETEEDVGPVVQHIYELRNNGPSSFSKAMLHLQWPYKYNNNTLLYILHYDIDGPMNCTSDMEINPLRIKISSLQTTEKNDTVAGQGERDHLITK
# T1 sequence (P06756 891-1048 partner limits assumed): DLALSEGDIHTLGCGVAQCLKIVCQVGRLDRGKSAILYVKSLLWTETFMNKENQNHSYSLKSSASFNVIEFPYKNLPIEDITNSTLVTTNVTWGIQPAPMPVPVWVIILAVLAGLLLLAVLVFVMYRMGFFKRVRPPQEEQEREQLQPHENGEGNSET
# T1 sequence (P05106 27-788): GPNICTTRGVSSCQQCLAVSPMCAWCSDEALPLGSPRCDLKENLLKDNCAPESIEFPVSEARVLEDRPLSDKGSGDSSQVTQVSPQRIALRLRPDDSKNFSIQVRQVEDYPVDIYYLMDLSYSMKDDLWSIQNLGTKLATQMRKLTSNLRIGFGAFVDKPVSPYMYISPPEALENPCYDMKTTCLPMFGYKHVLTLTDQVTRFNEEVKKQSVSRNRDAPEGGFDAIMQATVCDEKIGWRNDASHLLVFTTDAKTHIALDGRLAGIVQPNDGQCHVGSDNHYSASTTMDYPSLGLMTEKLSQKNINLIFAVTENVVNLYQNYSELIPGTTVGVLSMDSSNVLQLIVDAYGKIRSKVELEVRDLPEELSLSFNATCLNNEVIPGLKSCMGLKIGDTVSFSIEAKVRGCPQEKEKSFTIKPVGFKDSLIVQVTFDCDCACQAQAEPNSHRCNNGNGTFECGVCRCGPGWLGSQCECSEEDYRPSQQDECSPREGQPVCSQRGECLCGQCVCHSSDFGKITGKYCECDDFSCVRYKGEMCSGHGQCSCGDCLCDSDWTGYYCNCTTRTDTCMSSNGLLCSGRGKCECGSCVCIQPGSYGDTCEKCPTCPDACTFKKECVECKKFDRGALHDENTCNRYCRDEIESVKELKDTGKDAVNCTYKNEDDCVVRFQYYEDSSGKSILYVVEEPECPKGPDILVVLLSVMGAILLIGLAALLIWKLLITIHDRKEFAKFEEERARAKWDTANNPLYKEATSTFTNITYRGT
# T2 sequence (P08514 32-887 limits assumed): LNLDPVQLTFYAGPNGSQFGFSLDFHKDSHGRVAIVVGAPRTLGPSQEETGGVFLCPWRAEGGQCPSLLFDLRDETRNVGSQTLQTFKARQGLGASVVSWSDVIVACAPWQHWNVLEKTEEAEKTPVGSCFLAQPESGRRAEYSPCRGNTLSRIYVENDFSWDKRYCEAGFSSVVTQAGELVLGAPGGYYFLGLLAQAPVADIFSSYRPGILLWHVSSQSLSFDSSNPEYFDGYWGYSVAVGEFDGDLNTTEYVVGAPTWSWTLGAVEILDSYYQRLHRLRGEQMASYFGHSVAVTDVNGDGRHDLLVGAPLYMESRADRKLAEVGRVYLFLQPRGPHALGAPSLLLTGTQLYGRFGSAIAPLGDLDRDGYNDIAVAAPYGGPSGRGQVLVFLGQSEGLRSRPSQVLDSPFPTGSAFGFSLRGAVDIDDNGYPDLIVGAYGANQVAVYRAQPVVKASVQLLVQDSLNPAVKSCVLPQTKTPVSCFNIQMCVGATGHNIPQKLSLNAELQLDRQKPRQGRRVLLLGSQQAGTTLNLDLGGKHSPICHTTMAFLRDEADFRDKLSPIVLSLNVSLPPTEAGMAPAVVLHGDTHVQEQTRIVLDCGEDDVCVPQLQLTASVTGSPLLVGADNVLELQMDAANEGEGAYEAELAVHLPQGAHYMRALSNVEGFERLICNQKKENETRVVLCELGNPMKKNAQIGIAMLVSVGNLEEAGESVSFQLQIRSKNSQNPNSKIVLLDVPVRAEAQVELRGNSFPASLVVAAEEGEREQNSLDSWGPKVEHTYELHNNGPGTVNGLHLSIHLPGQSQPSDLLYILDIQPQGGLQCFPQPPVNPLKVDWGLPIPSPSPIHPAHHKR
# T2 sequence (P08514 891-1039 partner limits assumed): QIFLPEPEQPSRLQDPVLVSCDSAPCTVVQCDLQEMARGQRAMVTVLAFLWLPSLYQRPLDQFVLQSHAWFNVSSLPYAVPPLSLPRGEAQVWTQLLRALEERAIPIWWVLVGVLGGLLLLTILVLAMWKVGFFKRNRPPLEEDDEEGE
# T2 sequence (P05106 27-788): as the sequence (P05106 27-788) above
Structure (SMILES),INHIBITION 250 uM RECEPTOR aVb3 SUBSTRATE FIBRINOGEN (αVβ3 integrin),INHIBITION @ 250 uM RECEPTOR allBb3 SUBSTRATE FIBRINOGEN (αllbβ3 integrin),INHIBITION 250 uM RECEPTOR allBb3 SUBSTRATE VITRONECTIN (αllbβ3 integrin)
"Nc1cccc(C(=O)NC2C(O)OC(COCC(=O)O)C(O)C2OCc2ccc(Br)cc2)c1 (single isomer, unassigned) [Compound 1]",− (0% to 35% inhibition at 250 micromolar),+ (36% to 60% inhibition at 250 micromolar),+ (36% to 60% inhibition at 250 micromolar)
"COC1OC(COCc2cccc(N)c2)C(O)C(OCc2ccc(Br)cc2)C1NC(=O)c1ccc(C(=O)O)cc1 (single isomer, unassigned) [Compound 3]",+ (36% to 60% inhibition at 250 micromolar),+ (36% to 60% inhibition at 250 micromolar),+++ (81% to 100% inhibition at 250 micromolar)
"COC1OC(COCc2cccc(N)c2)C(O)C(OCc2ccc(Br)cc2)C1NC(=O)c1ccc(C(=O)O)cc1 (single isomer, unassigned) [Compound 4]",+ (36% to 60% inhibition at 250 micromolar),− (0% to 35% inhibition at 250 micromolar),− (0% to 35% inhibition at 250 micromolar)
"COC1OC(COCc2ccccc2)C(O)C(OCC(=O)O)C1NC(=O)c1cccc(N)c1 (single isomer, unassigned) [Compound 5]",++ (61% to 80% inhibition at 250 micromolar),++ (61% to 80% inhibition at 250 micromolar),+++ (81% to 100% inhibition at 250 micromolar)
"COC1OC(COCc2ccccc2)C(O)C(OCC(=O)O)C1NC(=O)c1cccc(N)c1 (single isomer, unassigned) [Compound 6]",+++ (81% to 100% inhibition at 250 micromolar),− (0% to 35% inhibition at 250 micromolar),+++ (81% to 100% inhibition at 250 micromolar)
"COC1OC(COCc2ccc(Br)cc2)C(O)C(OCC(=O)O)C1NC(=O)c1cccc(N)c1 (single isomer, unassigned) [Compound 7]",+ (36% to 60% inhibition at 250 micromolar),+ (36% to 60% inhibition at 250 micromolar),+++ (81% to 100% inhibition at 250 micromolar)
"COC1OC(COCc2ccc(Br)cc2)C(O)C(OCC(=O)O)C1NC(=O)c1cccc(N)c1 (single isomer, unassigned) [Compound 8]",+++ (81% to 100% inhibition at 250 micromolar),+ (36% to 60% inhibition at 250 micromolar),+++ (81% to 100% inhibition at 250 micromolar)
"COC1OC(COCc2cccc(N)c2)C(O)C(OCC(=O)O)C1NC(=O)c1ccc(Cl)cc1 (single isomer, unassigned) [Compound 9]",+++ (81% to 100% inhibition at 250 micromolar),+ (36% to 60% inhibition at 250 micromolar),+++ (81% to 100% inhibition at 250 micromolar)
"COC1OC(COCc2cccc(N)c2)C(O)C(OCC(=O)O)C1NC(=O)c1ccc(Cl)cc1 (single isomer, unassigned) [Compound 10]",+++ (81% to 100% inhibition at 250 micromolar),++ (61% to 80% inhibition at 250 micromolar),+++ (81% to 100% inhibition at 250 micromolar)
"COC1OC(COCc2ccccc2)C(O)C(OCc2ccc(C(=O)O)cc2)C1NC(=O)CCNC(=N)N (single isomer, unassigned) [Compound 11]",+ (36% to 60% inhibition at 250 micromolar),+ (36% to 60% inhibition at 250 micromolar),+++ (81% to 100% inhibition at 250 micromolar)
"COC1OC(COCc2ccccc2)C(O)C(OCc2ccc(C(=O)O)cc2)C1NC(=O)CCNC(=N)N (single isomer, unassigned) [Compound 12]",− (0% to 35% inhibition at 250 micromolar),++ (61% to 80% inhibition at 250 micromolar),++ (61% to 80% inhibition at 250 micromolar)
"COC(=O)c1ccc(COC2C(O)C(COCc3ccccc3)OC(OC)C2NC(=O)CCNC(=N)N)cc1 (single isomer, unassigned) [Compound 13]",− (0% to 35% inhibition at 250 micromolar),+ (36% to 60% inhibition at 250 micromolar),+++ (81% to 100% inhibition at 250 micromolar)
"COC(=O)c1ccc(COC2C(O)C(COCc3ccccc3)OC(OC)C2NC(=O)CCNC(=N)N)cc1 (single isomer, unassigned) [Compound 14]",++ (61% to 80% inhibition at 250 micromolar),+ (36% to 60% inhibition at 250 micromolar),+++ (81% to 100% inhibition at 250 micromolar)
"COC1OC(COCc2ccc(Br)cc2)C(O)C(OCc2ccc(C(=O)O)cc2)C1NC(=O)CCNC(=N)N (single isomer, unassigned) [Compound 15]",++ (61% to 80% inhibition at 250 micromolar),+ (36% to 60% inhibition at 250 micromolar),+++ (81% to 100% inhibition at 250 micromolar)
"COC1OC(COCc2ccc(Br)cc2)C(O)C(OCc2ccc(C(=O)O)cc2)C1NC(=O)CCNC(=N)N (single isomer, unassigned) [Compound 16]",++ (61% to 80% inhibition at 250 micromolar),+ (36% to 60% inhibition at 250 micromolar),+++ (81% to 100% inhibition at 250 micromolar)
"COC(=O)c1ccc(COC2C(O)C(COCc3ccc(Br)cc3)OC(OC)C2NC(=O)CCNC(=N)N)cc1 (single isomer, unassigned) [Compound 17]",+++ (81% to 100% inhibition at 250 micromolar),+ (36% to 60% inhibition at 250 micromolar),+++ (81% to 100% inhibition at 250 micromolar)
"COC1OC(COCc2cccc(N)c2)C(O)C(OCc2ccc(C(=O)O)cc2)C1NC(=O)c1ccccc1 (single isomer, unassigned) [Compound 18]",+++ (81% to 100% inhibition at 250 micromolar),++ (61% to 80% inhibition at 250 micromolar),+++ (81% to 100% inhibition at 250 micromolar)
"COC1OC(COCc2cccc(N)c2)C(O)C(OCc2ccc(C(=O)O)cc2)C1NC(=O)c1ccccc1 (single isomer, unassigned) [Compound 19]",+++ (81% to 100% inhibition at 250 micromolar),++ (61% to 80% inhibition at 250 micromolar),+++ (81% to 100% inhibition at 250 micromolar)
"COC1OC(COCc2ccccc2)C(O)C(OCc2cccc(N)c2)C1NC(=O)CCC(=O)O (single isomer, unassigned) [Compound 20]",+++ (81% to 100% inhibition at 250 micromolar),+++ (81% to 100% inhibition at 250 micromolar),+++ (81% to 100% inhibition at 250 micromolar)
"COC1OC(COCc2ccccc2)C(O)C(OCc2cccc(N)c2)C1NC(=O)CCC(=O)O (single isomer, unassigned) [Compound 21]",+++ (81% to 100% inhibition at 250 micromolar),+++ (81% to 100% inhibition at 250 micromolar),
"Nc1cccc(COC2C(O)C(COCc3ccccc3)OC(O)C2NC(=O)CCC(=O)O)c1 (single isomer, unassigned) [Compound 22]",+ (36% to 60% inhibition at 250 micromolar),+ (36% to 60% inhibition at 250 micromolar),+ (36% to 60% inhibition at 250 micromolar)
"Nc1cccc(COC2C(O)C(COCc3ccccc3)OC(O)C2NC(=O)CCC(=O)O)c1 (single isomer, unassigned) [Compound 23]",− (0% to 35% inhibition at 250 micromolar),++ (61% to 80% inhibition at 250 micromolar),+++ (81% to 100% inhibition at 250 micromolar)
"COC1OC(COCc2ccc(Br)cc2)C(O)C(OCc2cccc(N)c2)C1NC(=O)CCC(=O)O (single isomer, unassigned) [Compound 24]",++ (61% to 80% inhibition at 250 micromolar),+ (36% to 60% inhibition at 250 micromolar),+++ (81% to 100% inhibition at 250 micromolar)
